Common to all, as to assay type: biochemical
One assay concerns the target CDK2/CCNE1 (Homo sapiens, UniProt P24941). Briefly: CDK2 homogeneous time-resolved fluorescence (HTRF) kinase assay. The following applies: CDK2/CCNE. The method in brief:
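CDK2/CCNE1 (3 nM) preincubated 20 min at 23 °C with compound, then reacted 60 min at 23 °C with 1 mM ATP and 50 nM ULight-4E-BP1 (Thr37/46) peptide. Stopped with EDTA, phospho-peptide detected by Eu-anti-phospho antibody (665 nm or 665/615 ratio). IC50 from 11-point half-log titrations typically starting at 10 μM.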

A further assay deals with CDK1/CCNB1 (Homo sapiens, UniProt P06493). Briefly: CDK1 homogeneous time-resolved fluorescence (HTRF) kinase assay. The following applies: CDK1/CCNB. In outline:
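Kinase activity is measured as Lance signal (665 nm, or 665/615 nm ratio) from europium-labelled anti-phospho-Thr37/46 antibody binding ULight-4E-BP1 peptide. Reactions contain 0.5 nM enzyme, 1 mM ATP, 1% DMSO and run 60 min at 23 °C before EDTA quench.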
Background: In TR-FRET formats the signal depends on donor and acceptor labels being close together.

Another assay addresses CDK4/CCND3 (Homo sapiens, UniProt P11802). Briefly: CDK4 homogeneous time-resolved fluorescence (HTRF) kinase assay. The following applies: CDK4/CCND. The method in brief: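 Steps: compound plus 1.5 nM CDK4/CCND3, 20 min, 23 °C; add 1 mM ATP and 50 nM ULight-4E-BP1 (Thr37/46) peptide, 60 min; stop with 10 mM EDTA; add 2 nM Eu anti-phospho antibody, 60 min; read 665 nm. IC50 from 11-point half-log series starting 10 μM.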

In the next assay the target is CDK6/CCND1 (Homo sapiens, UniProt Q00534). Briefly: CDK6 homogeneous time-resolved fluorescence (HTRF) kinase assay. As to conditions: CDK6/CCND, 1 mM ATP. The method in brief:
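Enzyme pre-incubated 20 min at 23 °C with compound, then reacted 60 min at 23 °C with 1 mM ATP and 50 nM ULight-4E-BP1 (Thr37/46) peptide; 1 nM enzyme, 1% DMSO. EDTA-stopped, Eu-anti-phospho antibody TR-FRET read (665 nm or 665/615 ratio); 11-point half-log titration from 10 μM gave IC50.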

Setting [1] is: <25 nM, read-out: CDK2/CCNE IC50, <25 nM.
[2] abbreviates: >250 nM, read-out: CDK1/CCNB IC50 >250 nM.
The mark [3] stands for this setting: 25-250 nM, read-out: CDK4/CCND IC50, 25-250 nM.
Setting [4] is: 25-250 nM, read-out: CDK6/CCND IC50, 25-250 nM.
Setting [5] is: 25-250 nM, read-out: CDK2/CCNE IC50, 25-250 nM.
Where [6] appears, read: >250 nM, read-out: CDK4/CCND IC50, >250 nM.
The mark [7] stands for this setting: >250 nM, read-out: CDK6/CCND IC50, >250 nM.
Where [8] appears, read: 25-250 nM, read-out: CDK1/CCNB IC50, 25-250 nM.

SMILES strings stand for the structures. Where two headings read alike, the source gives them in different places.

CDK6/CCND1, sequence (Q00534 whole entry): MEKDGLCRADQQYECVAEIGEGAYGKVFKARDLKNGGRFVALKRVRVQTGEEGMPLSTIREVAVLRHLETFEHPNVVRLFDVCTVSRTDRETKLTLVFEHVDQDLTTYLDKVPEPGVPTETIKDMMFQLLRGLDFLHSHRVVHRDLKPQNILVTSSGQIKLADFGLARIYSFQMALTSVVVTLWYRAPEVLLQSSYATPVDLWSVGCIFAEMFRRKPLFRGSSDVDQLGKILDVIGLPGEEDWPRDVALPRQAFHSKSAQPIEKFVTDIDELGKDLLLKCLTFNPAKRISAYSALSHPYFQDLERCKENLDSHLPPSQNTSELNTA
CDK6/CCND1, sequence (P24385 whole entry partner): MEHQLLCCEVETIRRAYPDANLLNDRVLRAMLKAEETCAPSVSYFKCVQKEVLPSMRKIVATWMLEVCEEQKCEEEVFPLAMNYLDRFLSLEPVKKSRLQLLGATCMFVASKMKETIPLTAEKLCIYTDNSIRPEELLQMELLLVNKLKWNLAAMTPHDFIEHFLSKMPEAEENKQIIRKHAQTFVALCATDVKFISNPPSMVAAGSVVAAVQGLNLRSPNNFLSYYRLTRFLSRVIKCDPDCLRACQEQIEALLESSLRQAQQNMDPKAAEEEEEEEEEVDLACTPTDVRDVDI
CDK1/CCNB1, sequence (P06493 whole entry): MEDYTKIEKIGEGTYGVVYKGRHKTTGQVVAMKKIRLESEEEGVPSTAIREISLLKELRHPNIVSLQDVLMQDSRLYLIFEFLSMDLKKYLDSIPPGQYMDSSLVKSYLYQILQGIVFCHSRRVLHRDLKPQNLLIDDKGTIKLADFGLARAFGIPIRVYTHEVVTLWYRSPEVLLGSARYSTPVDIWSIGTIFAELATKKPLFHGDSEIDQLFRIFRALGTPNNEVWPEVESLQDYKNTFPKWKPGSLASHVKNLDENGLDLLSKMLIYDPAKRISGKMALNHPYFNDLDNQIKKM
CDK1/CCNB1, sequence (P14635 whole entry partner): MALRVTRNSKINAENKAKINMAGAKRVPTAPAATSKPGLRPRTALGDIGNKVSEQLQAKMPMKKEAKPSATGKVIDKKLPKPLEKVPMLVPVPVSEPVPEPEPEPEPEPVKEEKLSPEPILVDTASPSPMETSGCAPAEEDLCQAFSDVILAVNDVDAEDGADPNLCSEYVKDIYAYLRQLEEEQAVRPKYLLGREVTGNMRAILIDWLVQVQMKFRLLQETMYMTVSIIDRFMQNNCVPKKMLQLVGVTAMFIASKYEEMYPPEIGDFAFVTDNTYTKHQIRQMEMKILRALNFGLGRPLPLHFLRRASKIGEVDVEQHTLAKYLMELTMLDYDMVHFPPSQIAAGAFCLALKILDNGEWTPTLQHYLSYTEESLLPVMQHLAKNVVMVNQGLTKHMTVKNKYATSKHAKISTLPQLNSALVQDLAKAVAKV
CDK4/CCND3, sequence (P11802 whole entry): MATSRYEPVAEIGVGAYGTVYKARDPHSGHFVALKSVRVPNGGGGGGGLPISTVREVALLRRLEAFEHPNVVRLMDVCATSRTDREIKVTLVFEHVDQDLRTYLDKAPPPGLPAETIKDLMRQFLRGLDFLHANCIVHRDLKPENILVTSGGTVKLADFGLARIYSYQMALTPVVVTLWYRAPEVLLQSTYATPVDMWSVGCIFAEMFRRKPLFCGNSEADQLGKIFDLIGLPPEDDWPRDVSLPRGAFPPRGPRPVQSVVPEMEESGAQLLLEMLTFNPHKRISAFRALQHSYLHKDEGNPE
CDK4/CCND3, sequence (P30281 whole entry partner): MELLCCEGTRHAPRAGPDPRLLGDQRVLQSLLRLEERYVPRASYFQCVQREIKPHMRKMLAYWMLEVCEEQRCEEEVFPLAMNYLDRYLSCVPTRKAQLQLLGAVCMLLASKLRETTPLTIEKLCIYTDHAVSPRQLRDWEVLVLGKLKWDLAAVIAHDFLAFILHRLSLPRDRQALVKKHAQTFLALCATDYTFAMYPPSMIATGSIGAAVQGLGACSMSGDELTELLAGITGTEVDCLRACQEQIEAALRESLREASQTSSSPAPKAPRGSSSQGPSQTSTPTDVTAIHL

For the compound `Cc1c(-c2nccc3cnc(Nc4ccc(S(=O)(=O)Nc5ccccn5)cc4)cc23)ccc2c1cnn2CC(C)(C)O` [Ex 924, 4-((5-(1-(2-hydroxy-2-methylpropyl)-4-methyl-1H-indazol-5-yl)-2,6-naphthyridin-3-yl)amino)-N-(pyridin-2-yl)benzenesulfonamide], the IC50 on CDK2/CCNE1 (setting [1]) was under 25 nM; at CDK1/CCNB1 (setting [2]) it was over 250 nM; on CDK4/CCND3 (setting [3]), 25 to 250 nM; on CDK6/CCND1 (setting [4]), 25 to 250 nM.

Regarding `Cc1c(-c2nccc3cnc(Nc4ccc(S(=O)(=O)O)cc4)cc23)ccc2c1cnn2CC(C)(C)O` [Ex 925, 4-((5-(1-(2-hydroxy-2-methylpropyl)-4-methyl-1H-indazol-5-yl)-2,6-naphthyridin-3-yl)amino)benzenesulfonic acid], the IC50 at CDK2/CCNE1 (setting [5]) was 25 to 250 nM; on CDK1/CCNB1 (setting [2]), over 250 nM; on CDK4/CCND3 (setting [6]), over 250 nM; at CDK6/CCND1 (setting [7]), over 250 nM.

In the case of `Cc1cc(C)nc(NS(=O)(=O)c2ccc(Nc3cc4c(-c5ccc6c(cnn6CC(C)(C)O)c5C)nccc4cn3)cc2)n1` [Ex 926, N-(4,6-dimethylpyrimidin-2-yl)-4-((5-(1-(2-hydroxy-2-methylpropyl)-4-methyl-1H-indazol-5-yl)-2,6-naphthyridin-3-yl)amino)benzenesulfonamide], the IC50 at CDK2/CCNE1 (setting [1]) was under 25 nM; at CDK1/CCNB1 (setting [8]) it was 25 to 250 nM; on CDK4/CCND3 (setting [6]), over 250 nM; on CDK6/CCND1 (setting [4]) it was 25 to 250 nM.

With `Cc1c(-c2nccc3cnc(Nc4ccc(S(=O)(=O)Nc5ncccn5)cc4)cc23)ccc2c1cnn2CC(C)(C)O` [Ex 927, 4-((5-(1-(2-hydroxy-2-methylpropyl)-4-methyl-1H-indazol-5-yl)-2,6-naphthyridin-3-yl)amino)-N-(pyrimidin-2-yl)benzenesulfonamide], the IC50 on CDK2/CCNE1 (setting [1]) was under 25 nM; on CDK1/CCNB1 (setting [2]), over 250 nM; on CDK4/CCND3 (setting [6]) it was over 250 nM; on CDK6/CCND1 (setting [7]), over 250 nM.

Take `Cc1c(-c2nccc3cnc(Nc4ccc(-n5ccnc5)cc4)cc23)ccc2c1cnn2CC(C)(C)O` [Ex 928, 1-(5-(7-((4-(1H-imidazol-1-yl)phenyl)amino)-2,6-naphthyridin-1-yl)-4-methyl-1H-indazol-1-yl)-2-methylpropan-2-ol]: the IC50 on CDK2/CCNE1 (setting [1]) is under 25 nM; at CDK1/CCNB1 (setting [8]) it was 25 to 250 nM; on CDK4/CCND3 (setting [3]), 25 to 250 nM; at CDK6/CCND1 (setting [4]), 25 to 250 nM.

Turning to `Cc1c(-c2nccc3cnc(Nc4cccc(C(=O)Nc5ccccc5)c4)cc23)ccc2c1cnn2CC(C)(C)O` [Ex 929, 3-((5-(1-(2-hydroxy-2-methylpropyl)-4-methyl-1H-indazol-5-yl)-2,6-naphthyridin-3-yl)amino)-N-phenylbenzamide], the IC50 at CDK2/CCNE1 (setting [5]) is 25 to 250 nM; at CDK1/CCNB1 (setting [2]), over 250 nM; on CDK4/CCND3 (setting [6]), over 250 nM; on CDK6/CCND1 (setting [7]) it was over 250 nM.

On to `Cc1c(-c2nccc3cnc(Nc4ccc(S(C)(=O)=O)c(N5CCN(C)CC5)c4)cc23)ccc2c1cnn2CC(C)(C)O` [Ex 931, 2-methyl-1-(4-methyl-5-(7-((3-(4-methylpiperazin-1-yl)-4-(methylsulfonyl)phenyl)amino)-2,6-naphthyridin-1-yl)-1H-indazol-1-yl)propan-2-ol], for which the IC50 at CDK2/CCNE1 (setting [5]) is 25 to 250 nM; at CDK1/CCNB1 (setting [2]) it was over 250 nM; on CDK4/CCND3 (setting [6]), over 250 nM; at CDK6/CCND1 (setting [7]), over 250 nM.

Regarding `Cc1c(-c2nccc3cnc(Nc4ccc(=O)n(C)n4)cc23)ccc2c1cnn2CC(C)(C)O` [Ex 932, 6-((5-(1-(2-hydroxy-2-methylpropyl)-4-methyl-1H-indazol-5-yl)-2,6-naphthyridin-3-yl)amino)-2-methylpyridazin-3(2H)-one], the IC50 on CDK2/CCNE1 (setting [1]) was under 25 nM; on CDK1/CCNB1 (setting [2]), over 250 nM; at CDK4/CCND3 (setting [3]) it was 25 to 250 nM; at CDK6/CCND1 (setting [7]) it was over 250 nM.

For the compound `CN1CCN(S(=O)(=O)c2ccc(Nc3cc4c(C#Cc5ccc(C#N)cc5)nccc4cn3)cc2)CC1` [Ex 933, 4-((7-((4-((4-methylpiperazin-1-yl)sulfonyl)phenyl)amino)-2,6-naphthyridin-1-yl)ethynyl)benzonitrile], the IC50 is over 250 nM on CDK2/CCNE1 (>250 nM, read-out: CDK2/CCNE IC50, >250 nM); over 250 nM at CDK1/CCNB1 (setting [2]); over 250 nM at CDK4/CCND3 (setting [6]); over 250 nM on CDK6/CCND1 (setting [7]).

(Values after patent US20260325533A1, “CDK INHIBITOR COMPOUNDS” (ALEKSIA THERAPEUTICS, INC., priority 2023, published 2026).)
